Results from paper PMC7587597, “Synthesis and Biological Evaluation of 1,3-Dideazapurine-Like 7-Amino-5-Hydroxymethyl-Benzimidazole Ribonucleoside Analogues as Aminoacyl-tRNA Synthetase Inhibitors” (Molecules, 2020).

How the values were obtained:
LeuRS [1] = target: T1, LeuRS (Neisseria gonorrhoeae, UniProt B4RNT1); experiment: X-ray crystal structure ([…] Å), soaked crystals; assay type: binding
T1 construct: gene leuS

LeuRS [2] = target: T2, LeuRS (Escherichia coli, UniProt P07813); experiment: radiolabel aminoacyl transfer assay with purified enzyme (Kiapp); assay type: biochemical
T2 construct: gene leuS

SerRS [3] = target: T3, SerRS (Escherichia coli, UniProt P0A8L1); experiment: radiolabel aminoacyl transfer assay, % inhibition at […]; assay type: biochemical
T3 construct: gene serS

SerRS [4] = target: T4, SerRS (Klebsiella pneumoniae, UniProt W9BNU9); experiment: X-ray crystal structure ([…] Å), soaked crystals; assay type: binding
T4 construct: gene serS

IleRS = target: T5, IleRS (Escherichia coli, UniProt P00956); experiment: radiolabel aminoacyl transfer assay with purified enzyme (Kiapp); assay type: biochemical
T5 construct: gene ileS

TyrRS = target: T6, TyrRS (Escherichia coli, UniProt P0AGJ9); experiment: ([…] Å); radiolabel aminoacylation inhibition (Kiapp); assay type: biochemical
T6 construct: gene tyrS

AspRS = target: T7, AspRS (Thermus thermophilus, UniProt Q5SKD2); experiment: X-ray crystal structure ([…] Å), soaked crystals; assay type: binding
T7 construct: gene aspS1
T7 sequence (Q5SKD2 whole entry): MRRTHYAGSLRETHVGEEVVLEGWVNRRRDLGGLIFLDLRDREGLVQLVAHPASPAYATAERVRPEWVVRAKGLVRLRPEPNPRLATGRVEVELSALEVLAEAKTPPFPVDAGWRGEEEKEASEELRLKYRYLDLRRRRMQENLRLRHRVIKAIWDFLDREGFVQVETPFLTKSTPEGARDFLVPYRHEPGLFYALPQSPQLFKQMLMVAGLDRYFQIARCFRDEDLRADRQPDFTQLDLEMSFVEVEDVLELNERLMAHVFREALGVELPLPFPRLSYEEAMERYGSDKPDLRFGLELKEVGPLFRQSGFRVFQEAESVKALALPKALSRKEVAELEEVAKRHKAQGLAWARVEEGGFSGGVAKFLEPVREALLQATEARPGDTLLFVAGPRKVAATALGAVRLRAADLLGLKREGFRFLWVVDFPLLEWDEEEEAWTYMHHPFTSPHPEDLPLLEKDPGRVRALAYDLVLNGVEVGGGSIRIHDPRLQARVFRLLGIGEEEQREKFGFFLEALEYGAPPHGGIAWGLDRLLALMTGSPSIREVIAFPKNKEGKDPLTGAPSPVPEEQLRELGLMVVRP

T4 sequence (W9BNU9 1-430): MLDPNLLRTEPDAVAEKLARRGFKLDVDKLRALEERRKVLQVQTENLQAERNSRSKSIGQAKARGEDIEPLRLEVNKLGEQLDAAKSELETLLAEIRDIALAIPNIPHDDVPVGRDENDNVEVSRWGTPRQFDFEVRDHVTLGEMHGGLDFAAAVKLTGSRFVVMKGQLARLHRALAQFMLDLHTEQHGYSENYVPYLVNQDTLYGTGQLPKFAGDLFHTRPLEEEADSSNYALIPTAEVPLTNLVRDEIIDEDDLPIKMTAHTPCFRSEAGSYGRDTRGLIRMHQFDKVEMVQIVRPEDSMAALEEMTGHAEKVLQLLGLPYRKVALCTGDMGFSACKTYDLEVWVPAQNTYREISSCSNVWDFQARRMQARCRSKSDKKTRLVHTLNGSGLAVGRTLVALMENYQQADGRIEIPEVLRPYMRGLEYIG
T3 sequence (P0A8L1 whole entry): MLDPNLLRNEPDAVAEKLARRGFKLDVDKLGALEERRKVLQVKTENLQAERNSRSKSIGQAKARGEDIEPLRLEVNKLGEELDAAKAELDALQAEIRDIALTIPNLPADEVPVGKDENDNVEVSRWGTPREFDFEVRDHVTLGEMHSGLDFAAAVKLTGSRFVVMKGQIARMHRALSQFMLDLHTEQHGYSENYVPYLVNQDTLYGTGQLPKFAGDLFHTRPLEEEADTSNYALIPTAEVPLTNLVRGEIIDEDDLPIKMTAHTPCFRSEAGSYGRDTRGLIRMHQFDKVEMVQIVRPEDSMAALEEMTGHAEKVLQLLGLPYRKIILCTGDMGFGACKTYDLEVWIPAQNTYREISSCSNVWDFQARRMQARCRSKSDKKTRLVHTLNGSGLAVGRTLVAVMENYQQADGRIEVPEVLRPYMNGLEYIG
T5 sequence (P00956 2-938): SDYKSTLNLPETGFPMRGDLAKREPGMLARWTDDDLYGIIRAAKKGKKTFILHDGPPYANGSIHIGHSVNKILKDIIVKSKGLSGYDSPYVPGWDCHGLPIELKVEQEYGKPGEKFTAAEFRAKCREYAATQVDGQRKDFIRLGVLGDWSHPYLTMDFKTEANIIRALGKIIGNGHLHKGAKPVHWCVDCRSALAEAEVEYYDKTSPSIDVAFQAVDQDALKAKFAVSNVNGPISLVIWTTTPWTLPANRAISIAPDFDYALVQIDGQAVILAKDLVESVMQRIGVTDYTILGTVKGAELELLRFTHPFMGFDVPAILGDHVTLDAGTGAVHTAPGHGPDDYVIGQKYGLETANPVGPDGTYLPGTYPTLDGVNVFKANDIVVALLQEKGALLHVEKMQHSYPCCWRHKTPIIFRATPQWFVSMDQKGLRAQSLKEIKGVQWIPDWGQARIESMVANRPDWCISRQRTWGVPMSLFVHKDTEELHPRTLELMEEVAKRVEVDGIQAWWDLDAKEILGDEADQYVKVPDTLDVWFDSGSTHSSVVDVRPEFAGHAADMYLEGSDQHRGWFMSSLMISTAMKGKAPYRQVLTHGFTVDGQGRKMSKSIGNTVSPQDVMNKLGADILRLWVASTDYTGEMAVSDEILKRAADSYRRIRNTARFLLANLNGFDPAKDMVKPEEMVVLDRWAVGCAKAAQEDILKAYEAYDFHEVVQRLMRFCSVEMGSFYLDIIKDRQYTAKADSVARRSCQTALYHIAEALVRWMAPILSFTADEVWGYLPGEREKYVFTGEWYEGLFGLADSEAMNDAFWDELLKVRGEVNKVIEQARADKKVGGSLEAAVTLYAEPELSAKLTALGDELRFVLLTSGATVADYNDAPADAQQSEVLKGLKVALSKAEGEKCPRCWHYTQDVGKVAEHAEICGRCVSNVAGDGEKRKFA
T2 sequence (P07813 whole entry): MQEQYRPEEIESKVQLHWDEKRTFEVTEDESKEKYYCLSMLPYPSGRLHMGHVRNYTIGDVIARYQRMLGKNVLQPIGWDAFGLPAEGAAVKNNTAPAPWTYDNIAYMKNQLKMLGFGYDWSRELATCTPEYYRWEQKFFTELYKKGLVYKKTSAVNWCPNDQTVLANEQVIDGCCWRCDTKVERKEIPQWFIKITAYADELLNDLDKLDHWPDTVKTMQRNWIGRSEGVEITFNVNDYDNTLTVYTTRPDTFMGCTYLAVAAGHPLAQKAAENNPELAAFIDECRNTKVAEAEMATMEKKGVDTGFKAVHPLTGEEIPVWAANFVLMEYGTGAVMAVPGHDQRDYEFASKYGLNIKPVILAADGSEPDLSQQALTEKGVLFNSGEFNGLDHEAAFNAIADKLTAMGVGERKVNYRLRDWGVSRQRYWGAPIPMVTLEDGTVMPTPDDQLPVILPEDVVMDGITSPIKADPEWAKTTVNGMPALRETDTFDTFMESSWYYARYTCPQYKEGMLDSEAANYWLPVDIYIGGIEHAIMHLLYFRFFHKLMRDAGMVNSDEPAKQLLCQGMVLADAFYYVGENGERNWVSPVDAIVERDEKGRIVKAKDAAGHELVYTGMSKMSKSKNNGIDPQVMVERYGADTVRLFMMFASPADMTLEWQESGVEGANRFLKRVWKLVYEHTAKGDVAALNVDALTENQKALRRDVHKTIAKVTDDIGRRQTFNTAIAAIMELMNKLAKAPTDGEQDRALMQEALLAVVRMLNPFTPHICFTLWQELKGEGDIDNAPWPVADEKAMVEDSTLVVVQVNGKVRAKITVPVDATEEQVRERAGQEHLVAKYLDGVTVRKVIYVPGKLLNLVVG
T1 sequence (B4RNT1 whole entry): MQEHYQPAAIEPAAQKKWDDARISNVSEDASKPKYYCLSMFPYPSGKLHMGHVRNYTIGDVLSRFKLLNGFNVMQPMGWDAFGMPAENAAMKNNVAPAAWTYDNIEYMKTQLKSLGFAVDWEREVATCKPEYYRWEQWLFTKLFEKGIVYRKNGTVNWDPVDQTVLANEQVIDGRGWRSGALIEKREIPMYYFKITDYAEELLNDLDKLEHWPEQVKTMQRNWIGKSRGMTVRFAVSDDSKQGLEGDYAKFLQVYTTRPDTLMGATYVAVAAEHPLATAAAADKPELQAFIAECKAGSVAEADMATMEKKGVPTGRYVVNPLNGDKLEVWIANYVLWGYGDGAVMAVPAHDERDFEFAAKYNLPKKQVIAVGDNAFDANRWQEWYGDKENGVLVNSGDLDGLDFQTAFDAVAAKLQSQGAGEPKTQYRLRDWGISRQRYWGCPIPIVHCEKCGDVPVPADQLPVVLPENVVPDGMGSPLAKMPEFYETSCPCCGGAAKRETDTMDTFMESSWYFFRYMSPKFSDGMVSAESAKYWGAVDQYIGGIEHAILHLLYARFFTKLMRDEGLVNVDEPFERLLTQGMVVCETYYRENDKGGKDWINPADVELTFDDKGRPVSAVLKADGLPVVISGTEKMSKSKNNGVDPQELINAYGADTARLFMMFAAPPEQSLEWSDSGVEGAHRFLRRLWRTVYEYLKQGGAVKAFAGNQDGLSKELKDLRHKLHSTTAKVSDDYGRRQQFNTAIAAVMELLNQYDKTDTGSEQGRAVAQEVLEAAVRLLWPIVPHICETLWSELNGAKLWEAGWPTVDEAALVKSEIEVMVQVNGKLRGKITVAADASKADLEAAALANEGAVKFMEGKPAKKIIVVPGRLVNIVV
T6 sequence (P0AGJ9 2-424): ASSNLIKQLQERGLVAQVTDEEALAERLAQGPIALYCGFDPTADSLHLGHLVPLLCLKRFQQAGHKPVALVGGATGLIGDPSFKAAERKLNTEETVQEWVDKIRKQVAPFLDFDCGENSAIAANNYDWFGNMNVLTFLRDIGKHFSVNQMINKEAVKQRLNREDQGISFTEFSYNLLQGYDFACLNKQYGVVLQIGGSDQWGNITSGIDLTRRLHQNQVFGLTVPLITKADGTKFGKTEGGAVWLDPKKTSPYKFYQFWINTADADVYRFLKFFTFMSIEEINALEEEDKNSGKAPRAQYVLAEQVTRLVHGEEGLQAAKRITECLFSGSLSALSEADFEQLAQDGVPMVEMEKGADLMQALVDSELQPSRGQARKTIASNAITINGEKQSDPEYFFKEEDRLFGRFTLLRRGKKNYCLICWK

In the case of CC(C)C[C@H](N)C(=O)NS(=O)(=O)OC[C@H]1O[C@@H](n2cnc3cc(CO)cc(N)c32)C(O)[C@@H]1O (stereo in doubt) [32e, (2R,3S,4S,5R)-(5-(7-Amino-5-(Hydroxymethyl)-1H-Benzo[d]imidazol-1-yl)-3,4-Dihydroxytetrahydrofuran-2-yl)methyl Leucylsulfamate], the “X-ray crystal structure (2.25 Å), soaked crystals” value (LeuRS [1]) is reported as “N. gonorrhoeae LeuRS in complex with LeuS7HMDDA” and the Ki (LeuRS [2]) is reported as 0.0215 ± 0.0012 µM.

With Nc1cc(CO)cc2ncn([C@@H]3O[C@H](COS(=O)(=O)NC(=O)[C@@H](N)CO)[C@@H](O)C3O)c12 (stereo in doubt) [32c, (2R,3S,4S,5R)-(5-(7-Amino-5-(Hydroxymethyl)-1H-Benzo[d]imidazol-1-yl)-3,4-Dihydroxytetrahydrofuran-2-yl)methyl Serylsulfamate] the inhibition at 200 µM (SerRS [3]) was 54% and the “X-ray crystal structure (2.18 Å), soaked crystals” value (SerRS [4]) was “K. pneumoniae SerRS in complex with SerS7HMDDA”.

CC[C@H](C)[C@H](N)C(=O)NS(=O)(=O)OC[C@H]1O[C@@H](n2cnc3cc(CO)cc(N)c32)[C@@H](O)[C@@H]1O [32f, (2R,3S,4S,5R)-(5-(7-Amino-5-(Hydroxymethyl)-1H-Benzo[d]imidazol-1-yl)-3,4-Dihydroxytetrahydrofuran-2-yl)methyl Isoleucylsulfamate] was tested, and the Ki (IleRS) was 0.0108 ± 0.0008 µM.

Nc1cc(CO)cc2ncn([C@@H]3O[C@H](COS(=O)(=O)NC(=O)[C@@H](N)Cc4ccc(O)cc4)[C@@H](O)C3O)c12 (stereo in doubt) [32b, (2R,3S,4S,5R)-(5-(7-Amino-5-(Hydroxymethyl)-1H-Benzo[d]imidazol-1-yl)-3,4-Dihydroxytetrahydrofuran-2-yl)methyl Tyrosylsulfamate] was tested, and the Ki (TyrRS) was 1.23 ± 0.239 µM.

For Nc1cc(CO)cc2ncn([C@@H]3O[C@H](COS(=O)(=O)NC(=O)[C@@H](N)CC(=O)O)[C@@H](O)[C@H]3O)c12 [32d, 3-Amino-4-((((5-(7-Amino-5-(Hydroxymethyl)-1H-Benzo[d]imidazol-1-yl)-3,4-Dihydroxytetrahydrofuran-2-yl)methoxy)sulfonyl)amino)-4-Oxobutanoic Acid], the “X-ray crystal structure (2.15 Å), soaked crystals” value (AspRS) was “T. thermophilus AspRS in complex with AspS7HMDDA”.
